Data from ChEMBL document CHEMBL3632504, “Discovery of 1H-pyrazolo[3,4-b]pyridines as potent dual orexin receptor antagonists (DORAs)” (Bioorg Med Chem Lett, 2015).
Converted amounts (≈) assume the structure as drawn. One block for each compound: values may come before it.

Columns and labels:
Homo sapiens = species: Homo sapiens; test: Selectivity ratio of Ki for human orexin 1 receptor to Ki for human orexin 2 receptor
[1] = Octanol/water partition coefficient, logP of the compound; format: physicochemical
[2] = Equilibrium solubility of the compound at pH 6.8; format: physicochemical; conditions: buffer
[3] = Intrinsic clearance in rat liver microsomes; format: ADME; conditions: read-out: CLH
Orexin receptor type 2 [4] = target: T1, Orexin receptor type 2 (Homo sapiens, UniProt O43614); test: Antagonist activity against human orexin 2 receptor after 1 hr by Ca2+ sensitive Fluo4-AM fluorescent dye-based FLIPR assay; format: functional
T1 sequence (O43614 whole entry): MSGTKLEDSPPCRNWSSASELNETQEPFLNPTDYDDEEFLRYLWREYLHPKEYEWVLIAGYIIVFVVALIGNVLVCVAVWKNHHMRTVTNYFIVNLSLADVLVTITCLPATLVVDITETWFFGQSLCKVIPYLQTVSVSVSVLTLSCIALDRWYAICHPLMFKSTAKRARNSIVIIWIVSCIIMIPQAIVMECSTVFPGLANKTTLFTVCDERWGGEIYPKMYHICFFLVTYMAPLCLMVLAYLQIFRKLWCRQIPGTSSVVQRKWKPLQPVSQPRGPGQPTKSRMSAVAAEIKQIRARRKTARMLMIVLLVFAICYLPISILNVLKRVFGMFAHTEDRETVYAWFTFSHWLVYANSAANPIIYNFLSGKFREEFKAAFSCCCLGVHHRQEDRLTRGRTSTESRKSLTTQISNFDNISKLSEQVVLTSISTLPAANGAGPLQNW

[5] = target: T2, Orexin/Hypocretin receptor type 1 (Homo sapiens, UniProt O43613); test: Displacement of [125l]orexin A from human orexin 1 receptor expressed in CHO cells after 1 hr; format: cell-based
T2 sequence (O43613 whole entry): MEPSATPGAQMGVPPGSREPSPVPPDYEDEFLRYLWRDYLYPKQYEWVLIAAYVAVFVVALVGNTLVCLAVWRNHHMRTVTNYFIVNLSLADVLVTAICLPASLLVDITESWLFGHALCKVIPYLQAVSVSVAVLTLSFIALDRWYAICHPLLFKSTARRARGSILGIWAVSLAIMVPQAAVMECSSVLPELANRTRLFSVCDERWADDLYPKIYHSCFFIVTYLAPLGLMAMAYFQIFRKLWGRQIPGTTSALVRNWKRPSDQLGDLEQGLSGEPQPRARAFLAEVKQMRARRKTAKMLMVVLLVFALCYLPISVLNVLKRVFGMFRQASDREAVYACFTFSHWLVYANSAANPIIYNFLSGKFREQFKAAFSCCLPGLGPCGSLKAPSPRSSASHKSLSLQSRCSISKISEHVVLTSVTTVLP

Orexin receptor type 2 [6] = target: T1, Orexin receptor type 2; test: Displacement of [125l]orexin A from human orexin 2 receptor expressed in CHO cells after 1 hr; format: cell-based
[7] = target: T2, Orexin/Hypocretin receptor type 1
Description: Antagonist activity against human orexin 1 receptor after 1 hr by Ca2+ sensitive Fluo4-AM fluorescent dye-based FLIPR assay

[8] = Drug metabolism in mouse liver microsomes assessed as oxidation at benzylic position of amide; format: ADME
Liver microsome [9] = test: Drug metabolism in human liver microsomes assessed as oxidation at benzylic position of amide; format: ADME
[10] = Drug metabolism in mouse liver microsomes assessed as oxidation at phenyl ring in 3-position of core moiety; format: ADME
Liver microsome [11] = test: Drug metabolism in human liver microsomes assessed as oxidation at phenyl ring in 3-position of core moiety; format: ADME
Mus musculus [12] = species: Mus musculus; test: Drug metabolism in mouse assessed as oxidation at benzylic position of amide; format: ADME, organism-based; conditions: in vivo
Mus musculus [13] = species: Mus musculus; test: Drug metabolism in mouse assessed as oxidation at phenyl ring in 3-position of core moiety; format: ADME, organism-based; conditions: in vivo
[14] = Permeability of the compound by PAMPA; format: physicochemical
Cytochrome P450 3A4 = Cytochrome P450 3A4 (Homo sapiens, UniProt P08684); test: Inhibition of CYP3A4 (unknown origin); format: ADME
Cytochrome P450 2D6 = Cytochrome P450 2D6 (Homo sapiens, UniProt P10635); test: Inhibition of CYP2D6 (unknown origin); format: ADME
Cytochrome P450 2C9 = Cytochrome P450 2C9 (Homo sapiens, UniProt P11712); test: Inhibition of CYP2C9 (unknown origin); format: ADME
[15] = Intrinsic clearance in human liver microsomes; format: ADME; conditions: read-out: CLH
[16] = Intrinsic clearance in mouse liver microsomes; format: ADME; conditions: read-out: CLH
[17] = Plasma protein binding in human; format: ADME, cell-free; conditions: read-out: PPB (converted)
[18] = Plasma protein binding in mouse; format: ADME; conditions: read-out: PPB
[19] = Blood clearance in mouse at 1 mg/kg, iv administered through cassette dosing; format: ADME, organism-based
[20] = Volume of distribution at steady state in mouse at 1 mg/kg, iv administered through cassette dosing; format: ADME, organism-based; conditions: in vivo, read-out: Vdss
[21] = Terminal half life in mouse at 1 mg/kg, iv administered through cassette dosing; format: ADME, organism-based; conditions: in vivo, read-out: beta t1/2 (converted)
Blood [22] = test: Dose-normalized Cmax in mouse blood at 3 mg/kg, po administered through cassette dosing; format: ADME, organism-based; conditions: in vivo
Blood [23] = test: Dose-normalized AUC in mouse blood at 3 mg/kg, po administered through cassette dosing; format: ADME, organism-based; conditions: in vivo
[24] = Oral bioavailability in mouse at 3 mg/kg administered through cassette dosing; format: ADME, organism-based; conditions: in vivo
Plasma = test: Fraction unbound in mouse plasma; format: ADME, cell-free
MDR1 = test: Efflux ratio of permeability from basolateral to apical side over apical to basolateral side in MDCK cells expressing MDR1; format: ADME, cell-based, Canis lupus familiaris; conditions: dog
[25] = target: Voltage-gated inwardly rectifying potassium channel KCNH2 (Homo sapiens, UniProt Q12809); test: Binding affinity to human ERG
in vivo = conditions: mouse, brain / blood, po, 3 mg/kg
Description: Ratio of drug level in brain to blood in mouse at 3 mg/kg, po at 1 hr post dose administered through cassette dosing

Sequence of Cytochrome P450 2C9 (P11712 whole entry): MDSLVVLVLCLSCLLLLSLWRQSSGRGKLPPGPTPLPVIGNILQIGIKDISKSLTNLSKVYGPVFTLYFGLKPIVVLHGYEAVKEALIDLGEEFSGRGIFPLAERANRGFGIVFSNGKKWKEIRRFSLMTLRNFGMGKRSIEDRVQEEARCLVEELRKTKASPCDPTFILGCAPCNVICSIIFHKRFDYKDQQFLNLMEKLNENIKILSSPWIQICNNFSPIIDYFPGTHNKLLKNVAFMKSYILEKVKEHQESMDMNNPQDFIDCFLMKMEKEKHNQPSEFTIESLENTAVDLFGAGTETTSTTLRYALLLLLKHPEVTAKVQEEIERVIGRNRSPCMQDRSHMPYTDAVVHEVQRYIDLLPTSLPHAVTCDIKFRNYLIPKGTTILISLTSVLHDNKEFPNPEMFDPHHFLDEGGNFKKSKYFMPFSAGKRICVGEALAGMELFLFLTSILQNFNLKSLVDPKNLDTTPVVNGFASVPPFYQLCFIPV
Sequence of Cytochrome P450 2D6 (P10635 whole entry): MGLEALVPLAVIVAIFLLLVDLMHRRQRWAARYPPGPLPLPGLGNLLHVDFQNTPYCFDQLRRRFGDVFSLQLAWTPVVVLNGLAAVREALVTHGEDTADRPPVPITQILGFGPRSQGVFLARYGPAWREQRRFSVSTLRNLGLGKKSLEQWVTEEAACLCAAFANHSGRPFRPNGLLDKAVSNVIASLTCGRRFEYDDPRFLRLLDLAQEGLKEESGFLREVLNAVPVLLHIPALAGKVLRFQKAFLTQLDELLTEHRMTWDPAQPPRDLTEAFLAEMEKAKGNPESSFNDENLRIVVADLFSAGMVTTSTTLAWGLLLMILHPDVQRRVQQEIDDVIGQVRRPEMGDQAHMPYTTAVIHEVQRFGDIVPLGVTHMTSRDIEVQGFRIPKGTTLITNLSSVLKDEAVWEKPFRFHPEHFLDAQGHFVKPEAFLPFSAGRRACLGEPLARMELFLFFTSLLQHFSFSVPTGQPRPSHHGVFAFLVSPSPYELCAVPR
Sequence of Cytochrome P450 3A4 (P08684 whole entry): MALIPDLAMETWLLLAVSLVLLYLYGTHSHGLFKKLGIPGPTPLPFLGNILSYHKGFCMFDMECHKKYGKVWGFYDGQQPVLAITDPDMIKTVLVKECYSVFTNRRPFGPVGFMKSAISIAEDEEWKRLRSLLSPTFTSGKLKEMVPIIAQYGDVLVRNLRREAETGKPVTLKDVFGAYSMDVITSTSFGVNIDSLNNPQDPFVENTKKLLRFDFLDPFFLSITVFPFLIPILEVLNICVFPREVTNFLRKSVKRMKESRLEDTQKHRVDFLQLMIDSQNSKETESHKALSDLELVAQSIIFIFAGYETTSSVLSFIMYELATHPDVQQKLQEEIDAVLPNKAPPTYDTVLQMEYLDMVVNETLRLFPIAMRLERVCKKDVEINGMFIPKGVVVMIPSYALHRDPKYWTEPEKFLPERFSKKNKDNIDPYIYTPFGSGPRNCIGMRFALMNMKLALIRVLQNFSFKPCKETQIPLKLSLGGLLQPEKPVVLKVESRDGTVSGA
Sequence of Voltage-gated inwardly rectifying potassium channel KCNH2 (Q12809 whole entry): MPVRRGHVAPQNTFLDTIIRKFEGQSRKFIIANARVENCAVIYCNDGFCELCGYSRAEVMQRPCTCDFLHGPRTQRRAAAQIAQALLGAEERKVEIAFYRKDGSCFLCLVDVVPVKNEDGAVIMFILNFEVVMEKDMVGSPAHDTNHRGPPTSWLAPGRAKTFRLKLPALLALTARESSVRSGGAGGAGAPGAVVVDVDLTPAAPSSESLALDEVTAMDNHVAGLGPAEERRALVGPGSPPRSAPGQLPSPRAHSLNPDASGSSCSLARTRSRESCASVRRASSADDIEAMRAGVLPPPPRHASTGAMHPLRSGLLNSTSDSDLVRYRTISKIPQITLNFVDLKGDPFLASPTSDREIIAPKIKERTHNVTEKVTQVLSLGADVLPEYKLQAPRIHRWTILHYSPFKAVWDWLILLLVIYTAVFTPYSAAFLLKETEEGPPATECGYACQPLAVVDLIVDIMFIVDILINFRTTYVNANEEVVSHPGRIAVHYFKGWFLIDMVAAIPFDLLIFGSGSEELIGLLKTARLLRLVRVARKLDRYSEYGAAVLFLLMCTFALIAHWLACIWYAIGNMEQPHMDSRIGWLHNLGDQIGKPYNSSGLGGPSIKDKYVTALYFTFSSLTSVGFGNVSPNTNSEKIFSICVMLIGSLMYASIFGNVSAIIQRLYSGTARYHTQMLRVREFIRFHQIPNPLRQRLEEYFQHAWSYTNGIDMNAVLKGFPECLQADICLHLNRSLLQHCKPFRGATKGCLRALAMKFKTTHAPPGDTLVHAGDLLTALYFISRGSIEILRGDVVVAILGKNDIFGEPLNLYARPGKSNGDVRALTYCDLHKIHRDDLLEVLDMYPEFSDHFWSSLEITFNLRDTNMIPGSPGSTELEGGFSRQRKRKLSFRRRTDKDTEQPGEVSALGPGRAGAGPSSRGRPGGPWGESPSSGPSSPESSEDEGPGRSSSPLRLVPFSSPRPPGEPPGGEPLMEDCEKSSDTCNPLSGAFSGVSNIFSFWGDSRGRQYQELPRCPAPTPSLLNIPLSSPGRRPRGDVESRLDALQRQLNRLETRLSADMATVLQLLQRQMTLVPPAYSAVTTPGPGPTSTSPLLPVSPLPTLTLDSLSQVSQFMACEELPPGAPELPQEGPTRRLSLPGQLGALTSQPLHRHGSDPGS

SMILES: Cc1cc2c(cn1)[C@@H](NC(=O)COc1cc(C)c3c(C4CC4)nn(C)c3n1)CC2
logP [1]: 3.5
solubility thermodynamic [2]: 25 µM (≈ 9.79 µg/mL)
microsomal CLint [3]: 924 µL/min/mg

SMILES: C[C@H](NC(=O)COc1cc(C(F)(F)F)c2c(-c3ccccc3)n[nH]c2n1)c1ccccc1
Ratio Ki (Homo sapiens): 4.65

SMILES: CC(NC(=O)COc1cc(C(F)(F)F)c2c(-c3ccccc3)nn(C)c2n1)c1ccccc1 (racemic)
Ki (Orexin receptor type 2 [4]; read-out: Ki): 78 nM
Ratio Ki (Homo sapiens): 1.54
Ki [5]: 88 nM
Ki (Orexin receptor type 2 [6]): 168 nM
Ki [7]: 120 nM

SMILES: Cc1ccc([C@H](C)NC(=O)COc2cc(C)c3c(-c4ncccn4)nn(C)c3n2)cc1
Ki (Orexin receptor type 2 [4]; read-out: Ki): 5 nM
logP [1]: 3.3
solubility thermodynamic [2]: 43 µM (≈ 17.9 µg/mL)

SMILES: COc1cccc(C(C)NC(=O)COc2cc(C(F)(F)F)c3c(-c4ccccc4)nn(C)c3n2)c1 (racemic)
Ratio Ki (Homo sapiens): 0.77

SMILES: Cc1n[nH]c(C)c1[C@H](C)NC(=O)COc1cc(C(F)(F)F)c2c(-c3ccccc3)nn(C)c2n1
logP [1]: 4.2
solubility thermodynamic [2]: < 4 µM
log(permeability) [14]: -4.1
IC50 (Cytochrome P450 3A4): > 20000 nM
IC50 (Cytochrome P450 2D6): > 20000 nM
IC50 (Cytochrome P450 2C9): > 20000 nM
microsomal CLint [3]: 603 µL/min/mg
microsomal CLint [15]: 433 µL/min/mg
microsomal CLint [16]: 330 µL/min/mg
fraction unbound [17]: 0.04
fraction unbound [18]: < 0.01
clearance [19]: 20 mL/min/kg
Vd [20]: 0.5 L/kg
half-life [21]: 30 min
Cmax/dose (Blood [22]): 300 nM
AUC/dose (Blood [23]): 371 nM·h
bioavailability [24]: 21%
Fu (Plasma): < 1%

SMILES: Cc1nn(C)c(C)c1C(C)NC(=O)COc1cc(C(F)F)c2c(C3CC3)nn(C)c2n1 (racemic)
logP [1]: 2.8
solubility thermodynamic [2]: 657 µM (≈ 284 µg/mL)
microsomal CLint [3]: 660 µL/min/mg

SMILES: Cc1nn(C)c(C)c1C(C)NC(=O)COc1cc(C(F)F)c2c(-c3ccccc3)nn(C)c2n1 (racemic)
logP [1]: 3.9
solubility thermodynamic [2]: 248 µM (≈ 116 µg/mL)

SMILES: Cc1ccc([C@H](C)NC(=O)COc2cc(C)c3c(-c4cnccn4)nn(C)c3n2)cc1
logP [1]: 3.9
solubility thermodynamic [2]: 115 µM (≈ 47.9 µg/mL)

SMILES: CC(NC(=O)COc1cc(C(F)(F)F)c2c(-c3ccccc3)nn(C)c2n1)c1ccccn1 (racemic)
Ki (Orexin receptor type 2 [4]): Not Active

SMILES: Cc1ccc2c(n1)CC[C@@H]2NC(=O)COc1cc(C)c2c(C3CC3)nn(C)c2n1
Ratio Ki (Homo sapiens): 4.95
clearance [19]: 66 mL/min/kg
Vd [20]: 0.4 L/kg
half-life [21]: 18 min
Cmax/dose (Blood [22]): 115 nM
AUC/dose (Blood [23]): 106 nM·h
bioavailability [24]: 16%
Kp at 1 h (in vivo): 0.13

SMILES: C[C@H](NC(=O)COc1cc(C(F)(F)F)c2c(-c3ccccn3)nn(C)c2n1)c1ccccc1
Ki (Orexin receptor type 2 [4]; read-out: Ki): 367 nM
logP [1]: 3.5
solubility thermodynamic [2]: 40 µM (≈ 18.2 µg/mL)
microsomal CLint [3]: 924 µL/min/mg
Ki [7]: 660 nM

SMILES: CC(NC(=O)COc1cc(C(F)(F)F)c2c(-c3ccccc3)nn(C)c2n1)c1cccnc1 (racemic)
Ratio Ki (Homo sapiens): 1.67

The next lines start with results.

Ratio Ki (Homo sapiens): 2.41
SMILES: COc1ccc([C@@H](C)NC(=O)COc2cc(C(F)(F)F)c3c(-c4ccccc4)nn(C)c3n2)cc1

Ki (Orexin receptor type 2 [4]; read-out: Ki): 10 nM
Ratio Ki (Homo sapiens): 0.7
Ki [7]: 7 nM
SMILES: Cc1nn(C)c(C)c1[C@H](C)NC(=O)COc1cc(C(F)(F)F)c2c(-c3ccccc3)nn(C)c2n1

Ratio Ki (Homo sapiens): 1.62
logP [1]: 4.7
solubility thermodynamic [2]: < 4 µM
Drug metabolism [8]: metabolite_detected
Drug metabolism (Liver microsome [9]): metabolite_detected
Drug metabolism [10]: metabolite_detected
Drug metabolism (Liver microsome [11]): metabolite_detected
Drug metabolism (Mus musculus [12]): metabolite_detected
Drug metabolism (Mus musculus [13]): metabolite_detected
SMILES: C[C@H](NC(=O)COc1cc(C(F)(F)F)c2c(-c3ccccc3)nn(C)c2n1)c1ccccc1

Ratio Ki (Homo sapiens): 7
Ki [5]: 8 nM
Ki (Orexin receptor type 2 [6]): 4 nM
logP [1]: 4.6
solubility thermodynamic [2]: < 4 µM
log(permeability) [14]: -4
efflux ratio (MDR1): 1
IC50 (Cytochrome P450 3A4): 8000 nM
IC50 (Cytochrome P450 2D6): > 20000 nM
IC50 (Cytochrome P450 2C9): 5000 nM
microsomal CLint [3]: 147 µL/min/mg
microsomal CLint [15]: 190 µL/min/mg
microsomal CLint [16]: 478 µL/min/mg
fraction unbound [17]: < 0.01
fraction unbound [18]: < 0.01
clearance [19]: 65 mL/min/kg
Vd [20]: 2 L/kg
half-life [21]: 66 min
Cmax/dose (Blood [22]): 4 nM
AUC/dose (Blood [23]): 17 nM·h
bioavailability [24]: 3%
Fu (Plasma): < 1%
Kp at 1 h (in vivo): 1.15
SMILES: COc1ccc([C@H](C)NC(=O)COc2cc(C(F)(F)F)c3c(-c4ccccc4)nn(C)c3n2)cc1
IC50 [25]: > 30000 nM

Ratio Ki (Homo sapiens): 9.64
SMILES: COc1ccc(CNC(=O)COc2cc(C(F)(F)F)c3c(-c4ccccc4)nn(C)c3n2)cc1

Ratio Ki (Homo sapiens): 0.31
SMILES: C[C@H](NC(=O)CNc1cc(C(F)(F)F)c2c(-c3ccccc3)nn(C)c2n1)c1ccccc1

Ratio Ki (Homo sapiens): 14.5
SMILES: COc1ccc(C(C)NC(=O)COc2cc(C(F)(F)F)c3c(-c4ccccc4)nn(C)c3n2)cc1 (racemic)

Ratio Ki (Homo sapiens): 1.73
SMILES: COc1ccccc1C(C)NC(=O)COc1cc(C(F)(F)F)c2c(-c3ccccc3)nn(C)c2n1 (racemic)
